Experimental data taken from paper PMC5421785, “Citrullination only infrequently impacts peptide binding to HLA class II MHC” (PLoS ONE, 2017).
Like-named read-outs stand apart in the source and are kept apart here. Blank lines part the entries; values can stand above or below the compound they belong to. Square brackets hold non-standard residues; d marks the D form. Ends that are not written are not given here. Peptide text beside a SMILES is read from it. Cit = NC(=O)NCCC[C@H](N)C(=O)O

What was measured:
HLA-DRB1*01:01 = biological target: T1, HLA-DRB1*01:01 (Homo sapiens, UniProt P01903+P01911, A100R/D57E/F55L/F60I/F76Y/I96L/L162R/M171V/P40L/Q125E/R42F/V115G/Y59C); experiment: HLA class II peptide binding, inhibition of radiolabeled peptide binding to purified MHC
T1 construct: EBV transformed homozygous cell lines were used as sources of MHC molecules; endogenous in cells; host or cells: EBV transformed homozygous cell lines

HLA-DRB1*04:01 = biological target: T2, HLA-DRB1*04:01 (Homo sapiens, UniProt P01903+P01911, A100K/A169T/F76Y/I96L/K127E/L162R/M171V/N62H/P40V/Q125Y/R42H/S133A/S149N/S66Y/V115G/V209L/W38E); experiment: as above
T2 construct: EBV transformed homozygous cell lines were used as sources of MHC molecules; endogenous in cells; host or cells: EBV transformed homozygous cell lines

[1] = citrullinated 15-mer (X), purified MHC, inhibition of radiolabeled peptide binding, dash = IC50 >40,000 nM, read-out: DRB1*01:01 binding capacity, Cit peptide (IC50 nM)
[2] = citrullinated 15-mer (X), purified MHC, inhibition of radiolabeled peptide binding, dash = IC50 >40,000 nM, read-out: DRB1*04:01 binding capacity, Cit peptide (IC50 nM)
[3] = wild-type (unmodified Arg) 15-mer peptide, purified HLA-DRB1*01:01, read-out: DRB1*01:01 binding capacity, WT peptide (IC50 nM)
[4] = wild-type (unmodified Arg) 15-mer peptide, purified HLA-DRB1*04:01, read-out: DRB1*04:01 binding capacity, WT peptide (IC50 nM)
[5] = citrullinated 15-mer peptide (X = citrulline), purified HLA-DRB1*01:01, read-out: DRB1*01:01 binding capacity, Cit peptide (IC50 nM)
[6] = citrullinated 15-mer peptide (X = citrulline), purified HLA-DRB1*04:01, read-out: DRB1*04:01 binding capacity, Cit peptide (IC50 nM)
[7] = read-out: DRB1*01:01 binding capacity, WT peptide (IC50 nM)
[8] = read-out: DRB1*04:01 binding capacity, WT peptide (IC50 nM)

Compound: TGFPGAAGRVGPPGS [Collagen 896 WT]
- IC50 (HLA-DRB1*01:01; [3]): 431 nM
- IC50 (HLA-DRB1*04:01; [4]): > 40000 nM

Compound: PGIDMSAFAGLGPRE [Collagen 1216 WT]
- IC50 (HLA-DRB1*01:01; [3]): 8.7 nM
- IC50 (HLA-DRB1*04:01; [4]): 14100 nM

Compound: CC(C)C[C@H](NC(=O)CNC(=O)[C@@H]1CCCN1C(=O)[C@H](Cc1ccccc1)NC(=O)CNC(=O)[C@H](CCCNC(=N)N)NC(=O)[C@H](CCC(=O)O)NC(=O)CNC(=O)[C@H](CCCNC(N)=O)NC(=O)[C@H](CCC(N)=O)NC(=O)CNC(=O)[C@@H]1CCCN1)C(=O)N1CCC[C@H]1C(=O)NCC(=O)N1CCC[C@H]1C(=O)O [PGQXGERGFPGLPGP] (H-PGQ[Cit]GERGFPGLPGP-OH)
- IC50 (HLA-DRB1*01:01; [5]): 6470 nM
- IC50 (HLA-DRB1*04:01; [6]): > 40000 nM

Compound: CSCC[C@H](NC(=O)[C@H](Cc1ccc(O)cc1)NC(=O)[C@H](CCC(N)=O)NC(=O)[C@@H](N)CC(C)C)C(=O)N[C@@H](CCCNC(=N)N)C(=O)N[C@@H](C)C(=O)N[C@@H](CC(=O)O)C(=O)N[C@@H](CCC(N)=O)C(=O)N[C@@H](C)C(=O)N[C@@H](C)C(=O)NCC(=O)NCC(=O)N[C@@H](CC(C)C)C(=O)N[C@@H](CCCNC(N)=O)C(=O)N[C@@H](CCC(N)=O)C(=O)O [LQYMRADQAAGGLXQ] (H-LQYMRADQAAGGL[Cit]Q-OH)
- IC50 (HLA-DRB1*01:01; citrullinated peptide as listed (X at Cit position), read-out: DRB1*01:01 binding capacity Cit peptide (IC50 nM)): 64 nM
- IC50 (HLA-DRB1*04:01; citrullinated peptide as listed (X at Cit position), read-out: DRB1*04:01 binding capacity Cit peptide (IC50 nM)): 83 nM

Compound: GHRGFTGLQGLPGPP [Collagen 1131 WT]
- IC50 (HLA-DRB1*01:01; [3]): 0.77 nM
- IC50 (HLA-DRB1*04:01; [4]): 335 nM

Compound: CSCC[C@H](N)C(=O)N[C@@H](C)C(=O)N[C@@H](CCCNC(=N)N)C(=O)N[C@@H](Cc1c[nH]cn1)C(=O)N[C@@H](CC(C)C)C(=O)N[C@@H](CCCNC(N)=O)C(=O)N[C@@H](CCC(=O)O)C(=O)N[C@@H](Cc1ccc(O)cc1)C(=O)N[C@@H](CCC(N)=O)C(=O)N[C@@H](CC(=O)O)C(=O)N[C@@H](CC(C)C)C(=O)N[C@@H](CC(C)C)C(=O)N[C@@H](CC(N)=O)C(=O)N[C@H](C(=O)N[C@@H](CCCCN)C(=O)O)C(C)C [MARHLXEYQDLLNVK] (H-MARHL[Cit]EYQDLLNVK-OH)
- IC50 (HLA-DRB1*01:01; [5]): 577 nM
- IC50 (HLA-DRB1*04:01; [6]): 3130 nM

Compound: CC(C)C[C@H](NC(=O)CNC(=O)[C@@H]1CCCN1C(=O)[C@H](C)NC(=O)CNC(=O)[C@@H]1CCCN1C(=O)[C@H](CC(C)C)NC(=O)CNC(=O)[C@H](CCCCN)NC(=O)[C@H](CCC(=O)O)NC(=O)CNC(=O)[C@H](C)NC(=O)[C@@H](N)CCCCN)C(=O)N[C@@H](CCCNC(N)=O)C(=O)NCC(=O)O [KAGEKGLPGAPGLXG] (H-KAGEKGLPGAPGL[Cit]G-OH)
- IC50 (HLA-DRB1*01:01; [5]): 578 nM
- IC50 (HLA-DRB1*04:01; [6]): > 40000 nM

Second part, the compound after the results:

- IC50 (HLA-DRB1*01:01; [1]): 334 nM
- IC50 (HLA-DRB1*04:01; [2]): 6870 nM
Compound: CSCC[C@H](NC(=O)[C@H](CCCNC(=N)N)NC(=O)[C@H](CCCNC(=N)N)NC(=O)[C@@H](N)Cc1ccc(O)cc1)C(=O)N[C@@H](Cc1ccccc1)C(=O)NCC(=O)NCC(=O)N1CCC[C@H]1C(=O)NCC(=O)N[C@H](C(=O)N[C@@H](C)C(=O)N[C@@H](CO)C(=O)N[C@@H](CCCNC(N)=O)C(=O)N1CCC[C@H]1C(=O)N[C@@H](CO)C(=O)O)[C@@H](C)O [YRRMFGGPGTASXPS] (H-YRRMFGGPGTAS[Cit]PS-OH)

- IC50 (HLA-DRB1*01:01; [7]): 72 nM
- IC50 (HLA-DRB1*04:01; [8]): 824 nM
Compound: NYIDKVRFLEQQNKI [Vimentin 116 WT]

- IC50 (HLA-DRB1*01:01; [7]): 358 nM
- IC50 (HLA-DRB1*04:01; [8]): 596 nM
Compound: CC(C)C[C@H](NC(=O)[C@H](CO)NC(=O)[C@H](Cc1ccccc1)NC(=O)[C@H](CC(=O)O)NC(=O)[C@@H](NC(=O)[C@H](CO)NC(=O)[C@H](CC(=O)O)NC(=O)[C@H](CCC(N)=O)NC(=O)[C@H](CC(C)C)NC(=O)[C@H](CC(C)C)NC(=O)[C@H](CCCNC(=N)N)NC(=O)[C@@H](NC(=O)CN)C(C)C)C(C)C)C(=O)N[C@@H](C)C(=O)N[C@@H](CC(=O)O)C(=O)O [Vimentin 76 WT]

- IC50 (HLA-DRB1*01:01; [7]): 12500 nM
- IC50 (HLA-DRB1*04:01; [8]): 16400 nM
Compound: VEVERDNLAEDIMRL [Vimentin 171 WT]

- IC50 (HLA-DRB1*01:01; [1]): 93 nM
- IC50 (HLA-DRB1*04:01; [2]): 357 nM
Compound: CC(C)C[C@H](NC(=O)[C@H](CO)NC(=O)[C@H](Cc1ccc(O)cc1)NC(=O)[C@@H](NC(=O)[C@H](CCCNC(=N)N)NC(=O)[C@@H](NC(=O)[C@H](CO)NC(=O)[C@@H](NC(=O)[C@@H](NC(=O)[C@@H](NC(=O)[C@H](Cc1ccc(O)cc1)NC(=O)[C@H](CO)NC(=O)[C@H](CCCNC(N)=O)NC(=O)[C@H](CO)NC(=O)[C@@H](N)CO)C(C)C)[C@@H](C)O)[C@@H](C)O)[C@@H](C)O)[C@@H](C)O)C(=O)O [SSXSYVTTSTRTYSL] (H-SS[Cit]SYVTTSTRTYSL-OH)
